Experimental data taken from article PMC9956360, “Production of a Fungal Punicalagin-Degrading Enzyme by Solid-State Fermentation: Studies of Purification and Characterization” (Foods, 2023).

Tested on: T1, EAH (EAH 1 and EAH 2), ellagitannin-acyl hydrolase identified as alpha-L-arabinofuranosidase
T1 construct: gene abfB; native secreted protein from solid-state fermentation, co-purified mixture; 499 residues each; domains ArabFuran-catal (20-334 / 20-333) and AbfB (352-493)
Test: Lineweaver-Burk
Type: biochemical, Aspergillus niger
Details: mixture of two co-purified isoforms; temperature and pH of kinetics not stated
Description: Lineweaver-Burk on EAH (EAH 1 and EAH 2), ellagitannin-acyl hydrolase identified as alpha-L-arabinofuranosidase

COC(=O)c1cc(O)c(O)c(O)c1 [methyl gallate]
Km: 6.66 mM
